Molecular target: T1, LmxPP2C (Leishmania mexicana, UniProt E9AXF3)
T1 construct: gene LMXM_25_0750
T1 sequence (E9AXF3 1-406): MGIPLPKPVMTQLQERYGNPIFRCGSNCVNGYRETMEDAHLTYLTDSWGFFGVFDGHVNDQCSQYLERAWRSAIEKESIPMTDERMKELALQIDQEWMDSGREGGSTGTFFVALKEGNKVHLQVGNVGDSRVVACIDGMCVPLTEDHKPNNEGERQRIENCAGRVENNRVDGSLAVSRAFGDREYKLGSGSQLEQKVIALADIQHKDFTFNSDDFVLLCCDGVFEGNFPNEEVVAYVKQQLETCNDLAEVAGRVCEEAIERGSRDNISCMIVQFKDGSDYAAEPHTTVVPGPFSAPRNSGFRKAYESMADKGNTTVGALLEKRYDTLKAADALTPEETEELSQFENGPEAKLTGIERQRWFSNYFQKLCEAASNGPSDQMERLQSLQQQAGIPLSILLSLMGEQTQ
Assay: phosphatase inhibition assay, p-NPP hydrolysis at […] nm
Assay type: biochemical

COC[C@@H]([C@H](O)[C@H](O)C(=O)NCC[C@H](C)c1nc(/C=C/C[C@@H]2O[C@]3(C[C@@H](O)[C@@H]2C)O[C@H]([C@H](C[C@H](O)[C@H](C)[C@H](O)[C@H](C)/C=C(C)/C(C)=C/C=C/C(C)=C\C#N)OC)[C@H](OP(=O)(O)O)C3(C)C)co1)N(C)C [calyculin]
inhibition at 0.005 µM (read-out: % inhibition at 5 nM): 18%

C[n+]1cc2c3c(ccc2c2ccc4cc5c(cc4c21)OCO5)OCO3 [sanguinarine]
inhibition at 20 µM: 81%

C=C1[C@@H](O)[C@@H]2O[C@]3(CC[C@H](/C=C/[C@@H](C)[C@@H]4CC(C)=C[C@@]5(O[C@H](C[C@@](C)(O)C(=O)O)CC[C@H]5O)O4)O3)CC[C@H]2O[C@@H]1[C@@H](O)C[C@H](C)[C@H]1O[C@@]2(CCCCO2)CC[C@H]1C [okadaic acid]
inhibition at 1 µM (read-out: % inhibition at 1 μM): 14%

From article PMC8082450, “Protein Serine/Threonine Phosphatase Type 2C of Leishmania mexicana” (Frontiers in Cellular and Infection Microbiology, 2021)
